Results: patent US8883782B2, “Spiro-tetracyclic ring compounds as beta-secretase modulators and methods of use” (Amgen Inc., priority 2010, dated 2014)
Read-outs that look alike come from different tables or passages of the source.

Experiments:
[1] = biological target: Beta Secretase enzyme (BACE) (Homo sapiens, UniProt P56817); test: In vitro enzymatic BACE FRET (fluorescence resonance energy transfer) assay; assay type: biochemical; conditions: average IC50, enzyme assay; read-out: BACE 1 FRET assay
Beta Secretase enzyme (BACE), sequence (P56817 46-501, species assumed): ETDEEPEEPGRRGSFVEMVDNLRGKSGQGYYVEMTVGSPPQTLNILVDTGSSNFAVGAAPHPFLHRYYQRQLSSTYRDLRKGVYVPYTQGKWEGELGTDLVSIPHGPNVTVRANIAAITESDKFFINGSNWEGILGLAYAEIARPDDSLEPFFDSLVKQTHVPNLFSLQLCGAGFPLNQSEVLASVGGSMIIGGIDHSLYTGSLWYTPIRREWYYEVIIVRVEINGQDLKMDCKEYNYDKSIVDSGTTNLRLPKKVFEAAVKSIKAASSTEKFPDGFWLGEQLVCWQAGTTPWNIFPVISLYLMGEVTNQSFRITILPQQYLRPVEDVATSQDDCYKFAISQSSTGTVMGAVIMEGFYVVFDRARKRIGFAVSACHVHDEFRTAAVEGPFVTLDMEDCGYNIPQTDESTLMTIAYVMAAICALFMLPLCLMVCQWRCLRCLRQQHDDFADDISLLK
How it was run: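 Fluorescence read after Tris quench (pH raised to neutrality) of a one-hour BACE reaction. Buffer: acetate 0.05 M, pH 4.2, with 100 uM genapol and 10% DMSO final; started by adding 50 nM FRET peptide substrate spanning the cleavage site.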

[2] = system: Aβ40 in conditioned medium of cells stably expressing Amyloid Precursor Protein (APP); test: In vitro BACE cell-based assay (Aβ40 in conditioned medium, sandwich ELISA); conditions: Homo sapiens, read-out: HEK cell assay
How it was run: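 Quantification relied on pAb40/6E10 sandwich ELISA with Europium fluorescence counts, and IC50 was fitted versus concentration.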

[3] = HEK293, average IC50, HEK cells

SMILES	IC50 [1]	IC50 [2, 3]	IC50 ([2]; HEK293, average IC50)
CC#Cc1cnc(F)c(-c2ccc3c(c2)[C@@]2(COC(N)=N2)c2cc(-c4ccnc(F)c4)cnc2O3)c1 [Example 956, (5S)-7-(2-fluoro-5-(1-propyn-1-yl)-3-pyridinyl)-3-(2-fluoro-4-pyridinyl)spiro[chromeno[2,3-b]pyridine-5,4′-[1,3]oxazol]-2′-amine]	0.4 nM	6 nM	
CC1(C#Cc2cc3c(cn2)Oc2ccc(-c4c(F)ccnc4F)cc2[C@@]32COC(N)=N2)COC1 [Example 957, (5S)-7-(2,4-difluoro-3-pyridinyl)-3-((3-methyl-3-oxetanyl)ethynyl)spiro[chromeno[2,3-c]pyridine-5,4′-[1,3]oxazol]-2′-amine]	1.2 nM	33 nM	
Cc1ccc(-c2cnc3c(c2)[C@]2(CSC(N)=N2)c2cc(-c4cccnc4)ccc2O3)cn1 [Example 958, (5S)-3-(6-methyl-3-pyridinyl)-7-(3-pyridinyl)spiro[chromeno[2,3-b]pyridine-5,4′-[1,3]thiazol]-2′-amine]	1.5 nM	19 nM	
NC1=N[C@@]2(CS1)c1cc(-c3cccnc3)ccc1Oc1ncc(C3=CCCOC3)cc12 [Example 959, (5S)-3-(5,6-dihydro-2H-pyran-3-yl)-7-(3-pyridinyl)spiro[chromeno[2,3-b]pyridine-5,4′-[1,3]thiazol]-2′-amine]	1 nM	13 nM	
Cn1cc(-c2cnc3c(c2)[C@]2(CSC(N)=N2)c2cc(-c4cccnc4)ccc2O3)cn1 [Example 960, (5S)-3-(1-methyl-1H-pyrazol-4-yl)-7-(3-pyridinyl)spiro[chromeno[2,3-b]pyridine-5,4′-[1,3]thiazol]-2′-amine]	3.7 nM	36 nM	
CC1(C#Cc2cnc3c(c2)[C@]2(CSC(N)=N2)c2cc(-c4ccc(F)nc4)ccc2O3)COC1 [Example 961, (5S)-7-(6-fluoro-3-pyridinyl)-3-((3-methyl-3-oxetanyl)ethynyl)spiro[chromeno[2,3-b]pyridine-5,4′-[1,3]thiazol]-2′-amine]	1 nM	18 nM	
Cn1cc(-c2cnc3c(c2)[C@]2(CSC(N)=N2)c2cc(-c4ccc(F)nc4)ccc2O3)cn1 [Example 962, (5S)-7-(6-fluoro-3-pyridinyl)-3-(1-methyl-1H-pyrazol-4-yl)spiro[chromeno[2,3-b]pyridine-5,4′-[1,3]thiazol]-2′-amine]	5.4 nM	65 nM	
NC1=N[C@@]2(CS1)c1cc(-c3ccc(F)nc3)ccc1Oc1ncc(Br)cc12 [Example 963, (5S)-3-bromo-7-(6-fluoro-3-pyridinyl)spiro[chromeno[2,3-b]pyridine-5,4′-[1,3]thiazol]-2′-amine]	43.3 nM	833 nM	
CC1(C#Cc2cnc3c(c2)[C@]2(CSC(N)=N2)c2cc(-c4cncc(F)c4)ccc2O3)COC1 [Example 964, (5S)-7-(5-fluoro-3-pyridinyl)-3-((3-methyl-3-oxetanyl)ethynyl)spiro[chromeno[2,3-b]pyridine-5,4′-[1,3]thiazol]-2′-amine]	0.9 nM	15 nM	
NC1=N[C@@]2(CS1)c1cc(-c3cncc(F)c3)ccc1Oc1ncc(Br)cc12 [Example 965, (5S)-3-bromo-7-(5-fluoro-3-pyridinyl)spiro[chromeno[2,3-b]pyridine-5,4′-[1,3]thiazol]-2′-amine]	23.3 nM	785 nM	
NC1=N[C@@]2(CS1)c1cc(-c3ccc(F)nc3)ccc1Oc1ncc(C3=CCOCC3)cc12 [Example 966, (5S)-3-(3,6-dihydro-2H-pyran-4-yl)-7-(6-fluoro-3-pyridinyl)spiro[chromeno[2,3-b]pyridine-5,4′-[1,3]thiazol]-2′-amine]	2.2 nM	32 nM	
NC1=N[C@@]2(CO1)c1cc(OCc3ccccc3)ccc1Oc1ncc(C3=CCOCC3)cc12 [Example 967, (5S)-7-(benzyloxy)-3-(3,6-dihydro-2H-pyran-4-yl)spiro[chromeno[2,3-b]pyridine-5,4′-[1,3]oxazol]-2′-amine]	44.4 nM	463 nM	
C1=C(c2cnc3c(c2)[C@]2(COC(NCc4ccccc4)=N2)c2cc(OCc4ccccc4)ccc2O3)CCOC1 [Example 968, (5S)-N-benzyl-7-(benzyloxy)-3-(3,6-dihydro-2H-pyran-4-yl)spiro[chromeno[2,3-b]pyridine-5,4′-[1,3]oxazol]-2′-amine]	1260 nM	≥ 10000 nM	
NC1=N[C@@]2(CO1)c1cc(O)ccc1Oc1ncc(C3=CCOCC3)cc12 [Example 969, (5S)-2′-amino-3-(3,6-dihydro-2H-pyran-4-yl)spiro[chromeno[2,3-b]pyridine-5,4′-[1,3]oxazol]-7-ol]	835 nM	≥ 10000 nM	
NC1=N[C@@]2(CO1)c1cc(OCc3ccncc3)ccc1Oc1ncc(C3=CCOCC3)cc12 [Example 970, (5S)-3-(3,6-dihydro-2H-pyran-4-yl)-7-(4-pyridinylmethoxy)spiro[chromeno[2,3-b]pyridine-5,4′-[1,3]oxazol]-2′-amine]	112 nM	455 nM	
NC1=N[C@@]2(CO1)c1cc(OCc3cccnc3)ccc1Oc1ncc(C3=CCOCC3)cc12 [Example 971, (5S)-3-(3,6-dihydro-2H-pyran-4-yl)-7-(3-pyridinylmethoxy)spiro[chromeno[2,3-b]pyridine-5,4′-[1,3]oxazol]-2′-amine]	33.6 nM		154 nM
NC1=N[C@@]2(CO1)c1cc(OCc3ccccn3)ccc1Oc1ncc(C3=CCOCC3)cc12 [Example 972, (5S)-3-(3,6-dihydro-2H-pyran-4-yl)-7-(2-pyridinylmethoxy)spiro[chromeno[2,3-b]pyridine-5,4′-[1,3]oxazol]-2′-amine]	89.6 nM		629 nM
CC1(C#Cc2cnc3c(c2)[C@]2(COC(N)=N2)c2cc(OCc4ccccc4)ccc2O3)COC1 [Example 973, (5S)-7-(benzyloxy)-3-((3-methyl-3-oxetanyl)ethynyl)spiro[chromeno[2,3-b]pyridine-5,4′-[1,3]oxazol]-2′-amine]	187 nM		1370 nM
NC1=N[C@@]2(CO1)c1cc(OCc3cccnc3)ccc1Oc1ncc(-c3ccnc(F)c3)cc12 [Example 974, (5S)-3-(2-fluoro-4-pyridinyl)-7-(3-pyridinylmethoxy)spiro[chromeno[2,3-b]pyridine-5,4′-[1,3]oxazol]-2′-amine]	110 nM		2720 nM
NC1=N[C@@]2(CO1)c1cc(OCc3cccnc3)ccc1Oc1ncc(-c3cccnc3)cc12 [Example 975, (5S)-3-(3-pyridinyl)-7-(3-pyridinylmethoxy)spiro[chromeno[2,3-b]pyridine-5,4′-[1,3]oxazol]-2′-amine]	116 nM		1080 nM
NC1=N[C@@]2(CO1)c1cc(OCc3cccnc3)ccc1Oc1ncc(Br)cc12 [Example 976, (5S)-3-bromo-7-(3-pyridinylmethoxy)spiro[chromeno[2,3-b]pyridine-5,4′-[1,3]oxazol]-2′-amine]	3810 nM		≥ 10000 nM
Cc1ccc(-c2cnc3c(c2)[C@]2(COC(N)=N2)c2cc(OCc4cccnc4)ccc2O3)cn1 [Example 977, (5S)-3-(6-methyl-3-pyridinyl)-7-(3-pyridinylmethoxy)spiro[chromeno[2,3-b]pyridine-5,4′-[1,3]oxazol]-2′-amine]	51.9 nM		430 nM
